Data taken from paper PMC6627698, “Redesigning Arenicin-1, an Antimicrobial Peptide from the Marine Polychaeta Arenicola marina, by Strand Rearrangement or Branching, Substitution of Specific Residues, and Backbone Linearization or Cyclization” (Marine Drugs, 2019).
Residues, ends and D or L forms follow the SMILES beside them. *: point of attachment. Cam = NC(=O)C*

How the values were obtained:
[1] = test system: P. aeruginosa c.i.; format: cell-based, Pseudomonas aeruginosa; settings: 18 h
Description: (§1) E. coli ML35p, Listeria monocytogenes EGD, methicillin-resistant Staphylococcus aureus (MRSA) ATCC 33591 were kindly provided by Prof. Robert Lehrer (University of California, Los Angeles, CA, USA); E. coli ATCC 25922, E. coli M15, Pseudomonas aeruginosa ATCC 27853, S. aureus ATCC 25923 were provided by Dr. Elena Ermolenko (Institute of Experimental Medicine, St-Petersburg, Russia); drug-resistant clinical isolates were provided by Prof. Gennadiy Afinogenov (Saint Petersburg State University, Russia); S. aureus 710A has been described previously. The following clinical isolates of bacteria were used: P.s aeruginosa resistant to aztreonam, ceftazidime, cefotaxime (obtained from the urine of a patient with cystitis), Acinetobacter baumannii resistant to meropenem (from an infected wound); Staphylococcus intermedius (from an infected wound caused by a dog bite) resistant to ciprofloxacin, cefuroxime, clindamycin, erythromycin, rifampin, gentamicin, benzylpenicillin, oxacillin.
(§2) This assay was applied to determine the MIC, according to the guidelines of the Clinical and Laboratory Standards Institute, using Mueller Hinton (MH) Broth. We prepared 2x stocks of peptides and serially diluted them in sterile PBS instead of Mueller Hinton Broth, so that the treatment of the bacteria with the peptides was carried out in a medium containing 50% of MH and 50% of PBS, as described. The overnight cultures of each strain were transferred to fresh MH media and further incubated to obtain a mid-logarithmic-growth-phase culture of bacteria. The absorbance of each bacterial suspension was measured at 620 nm, and bacteria were then diluted to approximately 2 × 10^5 CFU/mL. Then, 50 µL of the suspensions were mixed with 50 µL of the peptide dilutions in the wells of a microtiter plate (pre-treated for 1 h at 37 °C with 0.2% bovine serum albumin (BSA) in water, sterilized by filtration, to diminish the non-specific binding of the peptides to the plastic surfaces).

[2] = test system: E. coli M15; format: cell-based, Escherichia coli; settings: M15, 18 h
Description: as §1, §2

[3] = test system: E. coli ATCC 25922; format: cell-based, Escherichia coli; settings: ATCC 25922, 18 h
Description: as §1, §2

[4] = test system: MRSA ATCC 33591; format: cell-based, Staphylococcus aureus; settings: ATCC 33591, 18 h
Description: as §1, §2

[5] = test system: S. aureus c.i.; format: cell-based, Staphylococcus aureus; settings: 18 h
Description: as §1, §2

[6] = test system: S. aureus ATCC 25923; format: cell-based, Staphylococcus aureus; settings: ATCC 25923, 18 h
Description: as §1, §2

[7] = test system: Acinetobacter baumanii c.i.; format: cell-based, Acinetobacter baumannii; settings: 18 h
Description: as §1, §2

[8] = test system: human erythroleukemia K-562 cells; format: cell-based; settings: 24 h
Method: The standard MTT ((3-(4,5-Dimethylthiazol-2-yl)-2,5-diphenyltetrazolium bromide) test was used for the examination of the cytotoxic activity of AMPs towards human erithroleukemia cells K-562. The cells were purchased from Biolot (Saint Petersburg, Russia) and were grown in RPMI 1640 medium (Biolot, Saint Petersburg, Russia) supplemented with glutamine and 10% FCS. Before the experiment, the culturing medium was replaced with serum-free RPMI 1640. Serial dilutions of the peptides in RPMI were plated in sterile 96-well microplates, and the target cells were dispensed to the microplates (10^5 cells/well in RPMI 1640). The plates were incubated for 24 h at 37 °C under 5% CO2. Cell-free media and cells incubated without peptides served as controls. Four hours before the incubation ended, MTT in PBS (5 mg/mL) was added to each well. After the incubation was stopped by adding isopropanol/ 0.04 M HCl, the optical density was measured at 540 nm, subtracting the background absorbance at 690 nm. Toxicity was determined by nonlinear regression analysis of the corresponding dose–response curves using the Sigma Plot 11 program to calculate the IC50 values (the concentration of the test substance that reduced the OD540 capacity by 50%).

[9] = test system: Staphylococcus intermidius; format: cell-based, Staphylococcus intermedius; settings: 18 h
Description: as §1, §2

[10] = test system: Staphylococcus aureus 710A; format: cell-based; settings: 18 h
Description: as §1, §2

[11] = test system: Escherichia coli ML35p; format: cell-based; settings: broth microdilution, 50% Mueller Hinton broth / 50% PBS, 18 h at 37 °C, median of 3–5 experiments in triplicates
Description: as §1, §2

[12] = test system: Pseudomonas aeruginosa ATCC 27853; format: cell-based; settings: ATCC 27853, 18 h
Description: as §1, §2

[13] = test system: Listeria monocytogenes EGD; format: cell-based; settings: 18 h
Description: as §1, §2

[14] = test system: set of Gram-negative and Gram-positive bacteria, including drug-resistant clinical isolates; format: cell-based; settings: 12 strains; median MICs used; MIC > 16 µM taken as 32 µM
Method: To obtain a global assessment of the effect on antimicrobial activity, the geometric mean of the MIC (G-MIC) was calculated, and from this, the overall improvement or impoverishment with respect to arenicin-1. In general, inverting the symmetry or decreasing the charge had detrimental effects.
The overall activity against a set of tested bacterial strains was determined by way of the commonly used geometric mean of measured MIC values. […] At the same time, the geometric mean can still discriminate antimicrobial agents showing minor variations in activity; in other words, it has a better “resolution” than the median MIC (MIC50). Some mathematical basics for choosing the geometric mean for antimicrobial activity comparison are further discussed in the Supplementary Chapter S3.

Compound | Minimal Inhibitory Concentrations (MIC) [1] [µM] | Minimal Inhibitory Concentrations (MIC) [2] [µM] | Minimal Inhibitory Concentrations (MIC) [3] [µM] | Minimal Inhibitory Concentrations (MIC) [4] [µM] | Minimal Inhibitory Concentrations (MIC) [5] [µM] | Minimal Inhibitory Concentrations (MIC) [6] [µM] | Minimal Inhibitory Concentrations (MIC) [7] [µM] | IC50 [8] [µM] | Minimal Inhibitory Concentrations (MIC) [9] [µM] | Minimal Inhibitory Concentrations (MIC) [10] [µM] | Minimal Inhibitory Concentrations (MIC) [11] [µM] | Minimal Inhibitory Concentrations (MIC) [12] [µM] | Minimal Inhibitory Concentrations (MIC) [13] [µM] | G-MIC (geometric mean of all determined MICs) [14] [µM]
CC(C)C[C@@H]1NC(=O)[C@H](C(C)C)NC(=O)CNC(=O)[C@H](CCCNC(=N)N)NC(=O)[C@H](C(C)C)NC(=O)[C@H](CCCNC(=N)N)NC(=O)[C@H](C(C)C)NC(=O)[C@H](CCCNC(=N)N)NC(=O)[C@H](Cc2ccc(O)cc2)NC(=O)[C@H](CCCNC(=N)N)NC(=O)[C@H](CCCNC(=N)N)NC(=O)[C@@H](NC(=O)[C@H](Cc2c[nH]c3ccccc23)NC(=O)[C@@H](N)CCCNC(=N)N)CSSC[C@@H](C(=O)N[C@@H](Cc2c[nH]c3ccccc23)C(=O)O)NC(=O)[C@H](C(C)C)NC(=O)[C@H](Cc2ccc(O)cc2)NC(=O)[C@H](C)NC(=O)[C@H](Cc2ccc(O)cc2)NC(=O)[C@H](C(C)C)NC1=O [ARin-s] (HELM PEPTIDE1{R.W.C.R.R.Y.R.V.R.V.R.G.V.L.V.Y.A.Y.V.C.W}$PEPTIDE1,PEPTIDE1,3:R3-20:R3$$$V2.0; N-terminus assumed) | >16 | 8 | 8 | >16 | >16 | 16 | 16 | 37.7 | >16 | 16 | 4 to 8 | 4 to 8 | 2 | ≥12.8
CC(C)C[C@H](NC(=O)[C@@H](NC(=O)CNC(=O)[C@H](CCCNC(=N)N)NC(=O)[C@@H](NC(=O)[C@H](CCCNC(=N)N)NC(=O)[C@@H](NC(=O)[C@H](Cc1ccc(O)cc1)NC(=O)[C@H](C)NC(=O)[C@H](Cc1ccc(O)cc1)NC(=O)[C@@H](NC(=O)[C@H](CSCC(N)=O)NC(=O)[C@H](Cc1c[nH]c2ccccc12)NC(=O)[C@@H](N)CCCNC(=N)N)C(C)C)C(C)C)C(C)C)C(C)C)C(=O)N[C@H](C(=O)N[C@@H](CCCNC(=N)N)C(=O)N[C@@H](Cc1ccc(O)cc1)C(=O)N[C@@H](CCCNC(=N)N)C(=O)N[C@@H](CCCNC(=N)N)C(=O)N[C@@H](CSCC(N)=O)C(=O)N[C@@H](Cc1c[nH]c2ccccc12)C(=O)O)C(C)C [ARlin] (H-RWC(Cam)VYAYVRVRGVLVRYRRC(Cam)W-OH; N-terminus assumed) | 4 to 8 | 2 | 2 | 4 | 8 to 16 | 2 | 4 | > 40 | 8 | 2 | 1 to 2 | 2 | 2 | 3.1
